# Data published in patent US8883798B2, “Pyrimidine compounds inhibiting the formation of nitric oxide and prostaglandin E2, method of production thereof and use thereof” (Ustav Organicke Chemie a Biochemie Akademie Ved CR, V.V.I., priority 2011, dated 2014).
# Experiments:
# [1] = tested on: production of nitric oxide (NO); experiment: Production of nitric oxide (NO) in cultures of mouse peritoneal cells stimulated with IFN-γ plus LPS (Griess reagent); assay type: cell-based, mice; conditions: Table 3B; substance 50 μmol·l^−1; IFN-g plus LPS; 24 h
# Method: (§1) Under in vitro conditions, the effect of the pyrimidine compounds according to this invention was tested in terms of the production of nitric oxide (NO) and in terms of the production of prostaglandin E2 (PGE2) in cultures of the peritoneal cells of mice.
# NO is a product of the metabolism of L-arginine, quickly changes to […], which are then measured using the Griess reagent system. Under normal conditions, the production of NO is practically zero. It only occurs after some stimulation. In these experiments, interferon-gamma (IFN-γ) and bacterial lipopolysacharide (LPS) were used as stimulators. The values of NO induced in this way fluctuated in the individual experiments in a range from 52 to 89 μmol·l^−1; for the purposes of comparison between the experiments they were considered as 100%. The production of NO after the application of the substances was expressed in percentage with respect to the control values. (The lower the value, the higher the inhibition effect of the substances on NO production.) IC50 are the concentrations of the substances reducing the production of NO by 50% with respect to the controls.
# (§2) Experiments were performed on mice peritoneal cells C57BL/6 (Charles River, Germany—AnLabu).
# (§3) NO production was induced using IFN-g (5000 pg/mL) plus LPS (100 pg/mL); evaluated (Griess reagent) after 24 h of the cell cultivation (2×10^6/mL). PGE2 was induced using LPS (10 ng/mL); evaluated (ELISA) following 6 h cultivation of cells (3×10^6/mL). Cell longevity was evaluated using WST-1 (tetrazolium salt), following 24 h cultivation of cells (1×10^6/mL). The values mentioned in the table represent the effects of the substances tested in a concentration of 50 μmol·l^−1.
# [2] = tested on: production of prostaglandin E2 (PGE2); experiment: Production of prostaglandin E2 (PGE2) in cultures of mouse peritoneal cells stimulated with LPS (ELISA kit); assay type: cell-based, mice; conditions: Table 3B, 6 h
# Method: as §1
# The influence on the production of prostaglandin E2 (PGE2) in vitro caused by the activity of the pyrimidine compounds according to the submitted invention was determined in cultures of the peritoneal cells of mice using a commercial kit (R&DSystems). The concentrations of PGE2 after lipopolysacharide (LPS) stimulation reached in the individual experiments values in a range of 22 to 91 ng·ml^−1 and for the purposes of comparison between the experiments were considered as 100%. The influence of the substances on the production of PGE2 was evaluated in percentage with respect to the control values.
# as §2, §3
# peritoneal cells of mice = experiment: Cell viability of mouse peritoneal cells (WST-1 kit); assay type: cell-based; conditions: Table 3B, substance 50 μmol·l^−1, 24 h
# Method: Cell viability was determined in the standard way using a WST-1 kit (Roche). The values of the viability of the control cells were for the purposes of comparison between experiments considered as 100%. The influence of the substances on the longevity of the cells was evaluated in percentage with respect to the control values.
# as §2, §3
Production of prostaglandins IC50 (μmol · 1^−1) average value and range of values [2],Compound,Production of nitric oxide in % of the controls [1],Cell viabilities in % of the controls (peritoneal cells of mice)
14.19 ± 4.00; n = 6 μmol · 1^−1,CCCCc1c(-c2ccc(OC)cc2)nc(N)nc1-c1cccs1 [Substance 88],69.14 ± 9.10; n = 2 % of the controls,125.52 ± 5.28; n = 8 % of the controls
92.30 ± 9.20; n = 4 μmol · 1^−1,CCCCc1c(-c2ccccn2)nc(N)nc1-c1cccs1 [Substance 89],19.62 ± 4.08; n = 6 % of the controls,104.15 ± 10.36; n = 8 % of the controls
31.93 ± 15.87; n = 4 μmol · 1^−1,CCCCc1c(-c2cccnc2)nc(N)nc1-c1cccs1 [Substance 90],50.11 ± 3.95; n = 4 % of the controls,69.80 ± 6.79; n = 4 % of the controls
29.01 ± 5.46; n = 4 μmol · 1^−1,CCCCc1c(-c2ccncc2)nc(N)nc1-c1cccs1 [Substance 91],63.95 ± 2.00; n = 4 % of the controls,81.38 ± 6.86; n = 4 % of the controls
29.52 ± 11.77; n = 4 μmol · 1^−1,CCCCc1c(-c2cccs2)nc(N)nc1-c1cccs1 [Substance 92],46.09 ± 7.92; n = 6 % of the controls,102.36 ± 6.45; n = 8 % of the controls
38.84 ± 15.99; n = 4 μmol · 1^−1,CCCCc1c(-c2ccccc2)nc(N)nc1-c1ccco1 [Substance 94],39.73 ± 5.57; n = 6 % of the controls,104.21 ± 14.38; n = 8 % of the controls
70.79 ± 11.61; n = 4 μmol · 1^−1,CCCCc1c(-c2ccc(F)cc2)nc(N)nc1-c1ccco1 [Substance 95],61.96 ± 6.41; n = 6 % of the controls,119.71 ± 4.71; n = 8 % of the controls
43.05 ± 21.74; n = 4 μmol · 1^−1,CCCCc1c(-c2ccc(OC)cc2)nc(N)nc1-c1ccco1 [Substance 96],50.99 ± 2.60; n = 4 % of the controls,113.53 ± 4.93; n = 8 % of the controls
48.18 ± 19.94; n = 4 μmol · 1^−1,CCCCc1c(-c2cccnc2)nc(N)nc1-c1ccco1 [Substance 97],37.05 ± 6.68; n = 6 % of the controls,45.54 ± 4.96; n = 8 % of the controls
62.49 ± 11.98; n = 4 μmol · 1^−1,CCCCc1c(-c2ccncc2)nc(N)nc1-c1ccco1 [Substance 98],54.42 ± 2.64; n = 6 % of the controls,69.84 ± 3.62; n = 8 % of the controls
13.25 ± 6.33; n = 4 μmol · 1^−1,CCCCc1c(-c2ccco2)nc(N)nc1-c1cccs1 [Substance 99],31.27 ± 2.12; n = 4 % of the controls,55.22 ± 5.10; n = 4 % of the controls
22.46 ± 7.25; n = 2 μmol · 1^−1,CCCCc1c(-c2ccco2)nc(N)nc1-c1ccco1 [Substance 100],33.70 ± 2.71; n = 6 % of the controls,69.04 ± 4.47; n = 8 % of the controls
6.60 ± 5.34; n = 4 μmol · 1^−1,CCCCc1c(Cl)nc(N)nc1-c1ccco1 [Substance 101],29.35 ± 6.38; n = 6 % of the controls,68.95 ± 3.02; n = 8 % of the controls
54.8 ± 10.70; n = 6 μmol · 1^−1,CCCCc1c(-c2ccccc2)nc(N)nc1-c1ccoc1 [Substance 102],68.34 ± 4.63; n = 6 % of the controls,110.35 ± 5.69; n = 8 % of the controls
66.80 ± 8.64; n = 4 μmol · 1^−1,CCCCc1c(-c2ccc(F)cc2)nc(N)nc1-c1ccoc1 [Substance 103],66.44 ± 3.19; n = 6 % of the controls,147.62 ± 3.25; n = 8 % of the controls
57.52 ± 12.44; n = 6 μmol · 1^−1,CCCCc1c(-c2ccc(OC)cc2)nc(N)nc1-c1ccoc1 [Substance 104],71.20 ± 2.85; n = 6 % of the controls,137.10 ± 2.72; n = 12 % of the controls
50.30 ± 9.52; n = 4 μmol · 1^−1,CCCCc1c(-c2ccoc2)nc(N)nc1-c1ccoc1 [Substance 105],49.07 ± 4.67; n = 4 % of the controls,101.86 ± 5.13; n = 4 % of the controls
22.10 ± 3.44; n = 4 μmol · 1^−1,CCCCc1c(Cl)nc(N)nc1-c1ccoc1 [Substance 106],54.83 ± 2.82; n = 4 % of the controls,100.38 ± 5.55; n = 8 % of the controls
68.07 ± 2.56; n = 4 μmol · 1^−1,CCCCc1c(-c2ccccc2)nc(N)nc1-c1ccsc1 [Substance 107],69.69 ± 6.09; n = 4 % of the controls,69.08 ± 1.78; n = 4 % of the controls
47.21 ± 2.59; n = 2 μmol · 1^−1,CCCCc1c(-c2ccc(F)cc2)nc(N)nc1-c1ccsc1 [Substance 108],64.92 ± 2.30; n = 4 % of the controls,124.71 ± 15.20; n = 4 % of the controls
4.9 ± 1.72; n = 4 μmol · 1^−1,CCCCc1c(-c2ccc(OC)cc2)nc(N)nc1-c1ccsc1 [Substance 109],73.38 ± 4.58; n = 6 % of the controls,120.58 ± 7.53; n = 8 % of the controls
64.72 ± 14.00; n = 2 μmol · 1^−1,CCCCc1c(-c2cccnc2)nc(N)nc1-c1ccsc1 [Substance 110],62.00 ± 2.93; n = 4 % of the controls,90.73 ± 10.89; n = 4 % of the controls
56.94 ± 12.51; n = 6 μmol · 1^−1,CCCCc1c(-c2ccsc2)nc(N)nc1-c1cccs1 [Substance 111],57.52 ± 1.81; n = 4 % of the controls,105.47 ± 5.51; n = 8 % of the controls
55.24 ± 7.98; n = 4 μmol · 1^−1,CCCCc1c(-c2ccsc2)nc(N)nc1-c1ccco1 [Substance 112],47.96 ± 4.90; n = 6 % of the controls,92.77 ± 7.75; n = 12 % of the controls
85.05 ± 9.96; n = 4 μmol · 1^−1,CCCCc1c(-c2ccoc2)nc(N)nc1-c1ccsc1 [Substance 113],63.79 ± 1.64; n = 6 % of the controls,101.51 ± 12.74; n = 8 % of the controls
37.00 ± 16.33; n = 4 μmol · 1^−1,CCCCc1c(-c2ccsc2)nc(N)nc1-c1ccsc1 [Substance 114],70.51 ± 5.78; n = 4 % of the controls,118.67 ± 2.26; n = 8 % of the controls
22.90 ± 11.94; n = 4 μmol · 1^−1,CCCCc1c(Cl)nc(N)nc1-c1ccsc1 [Substance 115],37.43 ± 8.29; n = 6 % of the controls,107.17 ± 2.03; n = 8 % of the controls
49.17 ± 9.72; n = 4 μmol · 1^−1,CCCCc1c(-c2ccccc2)nc(N)nc1-c1cc2ccccc2o1 [Substance 116],72.69 ± 10.36; n = 4 % of the controls,95.24 ± 4.78; n = 8 % of the controls
